Data from PMC9221018, “Sulfonamide-Derived Dithiocarbamate Gold(I) Complexes Induce the Apoptosis of Colon Cancer Cells by the Activation of Caspase 3 and Redox Imbalance” (Biomedicines, 2022).
Read-outs that look alike come from different tables or passages of the source.

Assays:
Caco-2 cells = experiment: MTT cytotoxicity assay in undifferentiated Caco-2 cells; format: cell-based, human
Description: (§1) The human Caco-2 cell line (TC7 clone) was kindly provided by Dr. Edith Brot-Laroche (Université Pierre et Marie Curie-Paris 6, UMR S 872, Les Cordeliers, France). Human epithelial fibroblast cells (NHDF-Ad, Lonza®®, Porriño, Spain) were kindly provided by Dr. Gracia Mendoza (Aragon Health Research Institute, IIS Aragón, Spain). Caco-2 cells (passages 40–70) and fibroblasts (passages 10–30) were maintained in a humidified atmosphere of 5% CO2 at 37 °C and grown in medium following the method used by Quero et al.. The Caco-2 cells were sub-cultured in 25 cm^2 plastic flasks at a density of 1.2 × 10^4 cells/cm^2, while the fibroblasts were sub-cultured on 75 cm^2 plastic flasks at a density of 1 × 10^4 cells/cm^2. The culture medium was replaced every 2 days.
(§2) The gold complexes were diluted in dimethyl sulfoxide (DMSO) as a 10 mM stock solution, and then diluted in cell culture medium at the desired concentrations.
(§3) For the cytotoxicity screening assays, Caco-2 cells were seeded in 96-well plates at a density of 4 × 10^3 cells/well. The culture medium was replaced with medium containing the drug panel 24 h post-seeding, and the cells were incubated for 24, 48 and 72 h. […] In differentiated Caco-2 and fibroblasts, culture medium containing metal gold complexes was added 15 days post-seeding, and the cells were incubated for 72 h. The antiproliferative effect was measured using an MTT assay, as previously described by Mármol et al.. The absorbance at 540/620 nm was measured using a SPECTROstar Nano (BMG Labtech, Ortenberg, Germany). In order to determine the selectivity index (SI), the IC50 value of the differentiated Caco-2 cells was divided by IC50 value in undifferentiated Caco-2, obtaining the ratio of the normal/cancerous cells’ toxicity.

[1] = n-octanol-water distribution coefficient, shake-flask method; format: physicochemical; details: n-octanol/buffered saline pH 7.4, shake-flask
Description: The n-octanol−water coefficients of the complexes were determined using a shake-flask method, as reported previously. Briefly, 100 mL buffered-saline (0.15 M NaCl, 10 mM phosphate [PO4^3−] buffer, pH 7.4) and 100 mL n-octanol were shaken for 72 h. The addition of 1 mg of the complexes followed by the centrifugation and separation of both phases gave two solutions, which were analysed by UV absorbance spectroscopy to determine their concentration in each phase. The corresponding value of log P was defined as log{[compound(organic)]/[compound(aqueous)]}.

[2] = system: Human epithelial fibroblast cells (NHDF-Ad); experiment: MTT viability assay in human epithelial fibroblasts; format: cell-based; details: complexes at their IC50 (1 1.14 μM, 3 1.7 μM, 8 7.22 μM, 9 8.56 μM), 72 h
Description: as §1, §2, §3

[3] = system: differentiated Caco-2 cells; experiment: MTT cytotoxicity assay in differentiated Caco-2 cells (healthy cell model); format: cell-based, human; details: for decrease of cell viability: complexes at their IC50 (1 1.14 μM, 3 1.7 μM, 8 7.22 μM, 9 8.56 μM), 72 h; for IC50: treatment for 72 h
Description: as §1, §2, §3

[4] = treatment for 72 h, read-out: IC50
[5] = 24 h incubation, read-out: IC50 24 h
[6] = 48 h incubation, read-out: IC50 48 h
[7] = 72 h incubation, read-out: IC50 72 h

Molecule | IC50 (Caco-2 cells; [4]) [µM] | Log P7.4 [1] | decrease of cell viability [2] | IC50 (Caco-2 cells; [5]) [µM] | IC50 (Caco-2 cells; [6]) [µM] | IC50 (Caco-2 cells; [7]) [µM] | decrease of cell viability [3] | IC50 [3] [µM]
[Au(S2CNHSO2-p-Cl-C6H4)(TPPTS)] [Complex 6] | 33.7 ± 2.74 | −0.83 |  |  |  |  |  | 
[Au(S2CNHSO2-p-Me-C6H4)(IBnPropargyl)] [Complex 10] | 13.2 ± 3.34 |  |  |  |  |  |  | 
[Au(S2CNHSO2-p-Me-C6H4)(PPh3)] [Complex 2] | 1.25 ± 0.35 | 0.71 |  |  |  |  |  | 
Cc1ccc(S(=O)(=O)NC(=S)[S][Au][PH](c2cccc(S(=O)(=O)[O-])c2)(c2cccc(S(=O)(=O)[O-])c2)c2cccc(S(=O)(=O)[O-])c2)cc1.[Na+].[Na+].[Na+] [Complex 5, [Au(S2CNHSO2-p-Me-C6H4)(TPPTS)]] | 31.8 ± 6.05 | −0.78 |  |  |  |  |  | 
[Au(S2CNHSO2-p-Cl-C6H4)(PPh3)] [Complex 3] | 1.7 ± 0.15 | 0.91 | did not compromise the viability | 2.48 ± 0.14 | 1.51 ± 0.1 | 1.7 ± 0.15 | did not compromise the viability | 14.3 ± 0.19
C#CCn1ccn(C)[c]1=[Au-].O=S(=O)(NC(=S)[S-])c1ccccc1 [Complex 7, [Au(S2CNHSO2C6H5)(IMePropargyl)]] | 33.3 ± 5.01 | 0.35 |  |  |  |  |  | 
C#CCn1ccn(Cc2ccccc2)[c]1=[Au-].O=S(=O)(NC(=S)[S-])c1ccccc1 [Complex 9, [Au(S2CNHSO2C6H5)(IBnPropargyl)]] | 8.56 ± 1.68 | 0.42 | approximately 39% | 31.2 ± 6.85 | 15.5 ± 1.89 | 8.56 ± 1.68 | approximately 39% | 19.5 ± 2.64
[Au(S2CNHSO2C6H5)(TPPTS)] [Complex 4] | 46.7 ± 5.61 | −0.40 |  |  |  |  |  | 
